# Experimental data as given in PMC9551276, “Design, synthesis and biological evaluation of novel orthosteric-allosteric ligands of the cannabinoid receptor type 2 (CB2R)” (Frontiers in Chemistry, 2022).
# Legend:
# hCB2R [1] = target: T1, hCB2R (Homo sapiens, UniProt P34972); test: DiscoveRx HitHunter inhibition of FSK-stimulated cAMP accumulation; assay type: cell-based
# Procedure: Inhibition of FSK-stimulated cAMP accumulation was measured using the DiscoveRx HitHunter assay.
# hCB2R [2] = target: T1, hCB2R; test: DiscoveRx PathHunter βarrestin2 recruitment; assay type: cell-based
# Procedure: βarrestin2 recruitment was quantified using the DiscoveRx PathHunter® assay. […] Detection solution was added to cells (DiscoveRx), and cells were incubated for 60 min at room temperature. Chemiluminescence was measured on a Cytation5 plate reader (top read, gain 200, integration time 10,000 ms).
# hCB1R = target: T2, hCB1R (Homo sapiens, UniProt P21554); test: [3H]CP55,940 radioligand displacement, CHO-K1 hCB1R membranes; assay type: binding; conditions: % [3H]CP55,940 bound, 1 nM radioligand, 2 h
# T2 construct: expressed in transfected cells; host or cells: CHO-K1 (ATCC CCL-61) stably expressing hCB1R; membranes
# Procedure: (§1) CHO-K1 cells were thawed, diluted in Tris buffer (50 mM Tris [pH 7.4]) and homogenized in a 1 ml hand-held homogenizer. hCB1R and hCB2R CHO-K1 cell membranes were collected by cavitation in a pressure cell, and sedimented by ultracentrifugation. Pellets were resuspended in TME buffer (50 mM Tris, 5 mM MgCl2, 1 mM EDTA [pH 7.4]), and protein concentration was measured via the Bradford method according to the manufacturer’s directions (Bio-Rad Laboratories, Mississauga, ON). […] Radioligand binding began with the addition of CHO-K1 cell membranes (25 µg protein per sample). Assays were performed for 120 min at 37°C and stopped by the addition of ice-cold Tris binding buffer (pH 7.4), followed by vacuum filtration using a 24-well sampling manifold (Brandel Cell Harvester; Brandel Inc., Gaithersburg, MD, United States ). Brandel GF/B filter paper was soaked with wash buffer at 4 °C for at least 24 h. Each filter paper was washed 6 times with a 1.2 ml aliquot of Tris-binding buffer (pH 7.4), then air-dried and submerged in 5 ml of scintillation fluid (Ultima Gold XR, PerkinElmer). Liquid scintillation spectrometry was used to quantify radioactivity.
# hCB2R [3] = target: T1, hCB2R; test: [3H]CP55,940 radioligand displacement, CHO-K1 hCB2R membranes; assay type: binding
# Procedure: as §1, with “Assays were performed for 120 min at 37°C and stopped by the addition of ice-cold Tris binding buffer (pH 7.4), followed by vacuum filtration using a 24-well sampling manifold (Brandel Cell Harvester; Brandel Inc., Gaithersburg, MD, United States ).” left out
# [4] = test system: human microglial cells (HMC3); test: IL-6 and IL-10 release (ELISA) in LPS/TNFα-stimulated HMC3 cells; assay type: cell-based
# Procedure: The concentrations of pro-inflammatory (IL-6) and anti-inflammatory (IL-10) interleukins were determined by performing specific ELISA assays (MyBioSource, San Diego, CA, United States ) on collected culture media. Human microglial cells (HMC3) were exposed to pretreatment with test compounds for 1 h followed by stimulation with LPS (10 μg/ml)/TNFα (50 ng/ml) for 24 h. In competition experiments, the CB2R antagonist (SR144528, 1 μM) or the CB2R positive allosteric modulator (EC21a 1 or 10 μM) were administered 15 min before agonist administration.
# HMC3 cells = test: MTT assay, HMC3 cell viability; assay type: cell-based, human
# Procedure: FIGURE 7 MTT assay performed with different concentrations of JR64a. Data represent means ± S.E.M. from n = 3 independent experiments, performed in triplicate. Statistical analysis was performed by ordinary one-way ANOVA followed by Tukey’s multiple comparison test. ^# p < 0.05 vs. control.
# T1 sequence (P34972 whole entry): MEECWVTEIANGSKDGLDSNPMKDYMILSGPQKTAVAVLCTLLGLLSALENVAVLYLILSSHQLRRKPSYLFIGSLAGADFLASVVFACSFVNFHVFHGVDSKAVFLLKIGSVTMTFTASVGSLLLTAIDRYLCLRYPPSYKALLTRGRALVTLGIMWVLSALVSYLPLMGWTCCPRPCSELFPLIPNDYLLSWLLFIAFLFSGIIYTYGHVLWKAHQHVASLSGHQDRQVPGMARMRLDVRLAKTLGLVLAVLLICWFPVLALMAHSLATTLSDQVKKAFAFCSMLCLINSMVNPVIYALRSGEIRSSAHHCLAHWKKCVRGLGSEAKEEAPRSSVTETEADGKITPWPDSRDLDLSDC
# T2 sequence (P21554 whole entry): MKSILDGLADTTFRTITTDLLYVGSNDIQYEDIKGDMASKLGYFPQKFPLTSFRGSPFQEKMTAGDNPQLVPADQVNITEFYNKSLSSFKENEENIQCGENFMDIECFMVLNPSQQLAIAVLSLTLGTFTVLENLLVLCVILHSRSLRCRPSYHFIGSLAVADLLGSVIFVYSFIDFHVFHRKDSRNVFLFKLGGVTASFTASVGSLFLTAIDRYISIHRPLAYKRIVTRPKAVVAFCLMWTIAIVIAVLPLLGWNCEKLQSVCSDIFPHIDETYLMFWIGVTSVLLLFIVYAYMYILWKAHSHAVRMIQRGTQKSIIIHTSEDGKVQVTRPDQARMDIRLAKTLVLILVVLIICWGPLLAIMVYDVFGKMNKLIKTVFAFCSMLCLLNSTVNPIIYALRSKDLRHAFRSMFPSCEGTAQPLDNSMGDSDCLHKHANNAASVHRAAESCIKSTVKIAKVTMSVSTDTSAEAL
smiles,measurement,setting,value
"Cc1c(Br)cn(CCCCCCCn2c(=O)c(C(=O)NC3CCC(C)CC3)cc3cccnc32)c(=O)c1NC(=O)C1CCCCCC1 (stereo not drawn) [JR64a, 1-(7-(5-bromo-3-(cycloheptanecarboxamido)-4-methyl-2-oxopyridin-1(2H)-yl)heptyl)-N-(4-methylcyclohexyl)-2-oxo-1,2-dihydro-1,8-naphthyridine-3-carboxamide]",EC50,hCB2R [1],8.6 nM
same,Response in inhibition of FSK-stimulated cAMP accumulation,hCB2R [1]; CHO-K1 hCB2R,modest partial agonist activity
same,"Inhibition of cAMP E max (% CP55,940) ± S.E.M","hCB2R [1]; CHO-K1 hCB2R, 10 µM FSK, 90 min","38 ± 0.74 % CP55,940"
same,EC50,hCB2R [2],> 10 µM
same,"βarrestin2 recruitment E max (% CP55,940) ± S.E.M","hCB2R [2]; CHO-K1 hCB2R, 90 min","45 ± 2.4 % CP55,940"
same,"hCB1R E min (% CP55,940) ± S.E.M",hCB1R,"104 ± 4.7 % CP55,940"
same,IC50,hCB2R [3],0.6 nM
same,"hCB2R E min (% CP55,940) ± S.E.M","hCB2R [3]; % [3H]CP55,940 bound, 1 nM radioligand, 2 h","20 ± 10.3 % CP55,940"
same,Anti-inflammatory properties,"[4]; 10 μM, LPS/TNFα-stimulated HMC3",good anti-inflammatory properties
same,Anti-inflammatory activity (IL-6 and IL-10 levels),"[4]; 10 or 25 μM, 1 h pretreatment, then LPS/TNFα 24 h",marked anti-inflammatory activity
same,Anti-inflammatory activity after pretreatment with CB2R antagonist SR144528,"[4]; SR144528 1 μM 15 min before agonist, LPS/TNFα 24 h",completely abolished
same,HMC3 cytotoxicity,HMC3 cells; 10 μM,no relevant HMC3 cytotoxicity
same,Decrease in cell viability,HMC3 cells; 25 μM,~10%
same,Cytotoxic effects in HMC3 cells,HMC3 cells; 1 and 10 μM,no relevant cytotoxic effects
same,melting point,,121 °C (dec.)
